In publication PMC4854315, “Discovery of a novel allosteric inhibitor-binding site in ERK5: comparison with the canonical kinase hinge ATP-binding site” (Acta Crystallographica. Section D, Structural Biology, 2016):

How the values were obtained:
Test in all cases: Z'-LYTE kinase panel
Assay type in all cases: biochemical
SGKL (SGK3) = molecular target: T1, SGKL (SGK3) (Homo sapiens, UniProt Q96BR1)
T1 construct: purchased ThermoFisher (SelectScreen, Z'-LYTE)
T1 sequence (Q96BR1 1-496): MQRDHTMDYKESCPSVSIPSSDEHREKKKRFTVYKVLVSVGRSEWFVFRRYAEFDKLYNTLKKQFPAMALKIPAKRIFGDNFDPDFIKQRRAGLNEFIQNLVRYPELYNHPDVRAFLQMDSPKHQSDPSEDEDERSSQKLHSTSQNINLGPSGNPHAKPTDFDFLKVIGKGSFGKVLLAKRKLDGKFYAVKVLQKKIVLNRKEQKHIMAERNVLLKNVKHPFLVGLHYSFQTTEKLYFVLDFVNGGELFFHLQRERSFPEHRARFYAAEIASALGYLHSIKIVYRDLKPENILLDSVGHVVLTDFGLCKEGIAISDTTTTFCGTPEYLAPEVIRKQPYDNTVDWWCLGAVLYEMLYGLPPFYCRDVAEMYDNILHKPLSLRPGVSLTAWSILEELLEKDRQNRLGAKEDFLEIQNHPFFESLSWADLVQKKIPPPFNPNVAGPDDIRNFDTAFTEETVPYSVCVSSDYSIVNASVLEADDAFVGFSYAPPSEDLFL
Procedure, shortened: (§1)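 Percentage inhibition comes from a one-concentration (10 µM) Z′-LYTE screen run under standard protocol over 225 panel kinases.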

RET = molecular target: T2, RET (Homo sapiens, UniProt P07949)
T2 construct: purchased ThermoFisher (SelectScreen, Z'-LYTE)
Procedure, shortened: as §1

PAK1 = molecular target: T3, PAK1 (Homo sapiens, UniProt Q13153)
T3 construct: purchased ThermoFisher (SelectScreen, Z'-LYTE)
Procedure, shortened: as §1

ABL1 = molecular target: T4, ABL1 (Homo sapiens, UniProt P00519)
T4 construct: purchased ThermoFisher (SelectScreen, Z'-LYTE)
Procedure, shortened: as §1

PRKCI (PKC iota) = molecular target: T5, PRKCI (PKC iota) (Homo sapiens, UniProt P41743)
T5 construct: purchased ThermoFisher (SelectScreen, Z'-LYTE)
T5 sequence (P41743 1-596): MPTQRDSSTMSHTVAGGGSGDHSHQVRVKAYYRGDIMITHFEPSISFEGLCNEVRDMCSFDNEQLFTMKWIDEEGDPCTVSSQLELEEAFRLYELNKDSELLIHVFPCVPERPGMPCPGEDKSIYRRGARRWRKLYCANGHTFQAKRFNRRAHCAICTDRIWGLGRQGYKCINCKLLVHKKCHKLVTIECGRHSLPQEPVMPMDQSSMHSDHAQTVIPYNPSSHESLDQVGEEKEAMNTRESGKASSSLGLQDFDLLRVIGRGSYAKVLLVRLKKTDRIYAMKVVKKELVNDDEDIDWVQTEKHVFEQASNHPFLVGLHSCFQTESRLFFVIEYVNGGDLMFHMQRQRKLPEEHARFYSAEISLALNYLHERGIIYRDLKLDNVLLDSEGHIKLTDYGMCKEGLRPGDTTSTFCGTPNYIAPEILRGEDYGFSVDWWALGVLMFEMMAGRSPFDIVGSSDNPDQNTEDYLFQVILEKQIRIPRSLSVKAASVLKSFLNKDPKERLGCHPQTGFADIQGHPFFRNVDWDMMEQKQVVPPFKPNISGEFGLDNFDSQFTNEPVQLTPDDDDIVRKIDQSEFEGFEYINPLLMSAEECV
Procedure, shortened: as §1

DNA-PK = molecular target: T6, DNA-PK (Homo sapiens, UniProt P78527)
T6 construct: purchased ThermoFisher (SelectScreen, Z'-LYTE)
Procedure, shortened: as §1

MAPKAPK2 = molecular target: T7, MAPKAPK2 (Homo sapiens, UniProt P49137)
T7 construct: purchased ThermoFisher (SelectScreen, Z'-LYTE)
Procedure, shortened: as §1

PRKG2 (PKG2) = molecular target: T8, PRKG2 (PKG2) (Homo sapiens, UniProt Q13237)
T8 construct: purchased ThermoFisher (SelectScreen, Z'-LYTE)
T8 sequence (Q13237 1-762): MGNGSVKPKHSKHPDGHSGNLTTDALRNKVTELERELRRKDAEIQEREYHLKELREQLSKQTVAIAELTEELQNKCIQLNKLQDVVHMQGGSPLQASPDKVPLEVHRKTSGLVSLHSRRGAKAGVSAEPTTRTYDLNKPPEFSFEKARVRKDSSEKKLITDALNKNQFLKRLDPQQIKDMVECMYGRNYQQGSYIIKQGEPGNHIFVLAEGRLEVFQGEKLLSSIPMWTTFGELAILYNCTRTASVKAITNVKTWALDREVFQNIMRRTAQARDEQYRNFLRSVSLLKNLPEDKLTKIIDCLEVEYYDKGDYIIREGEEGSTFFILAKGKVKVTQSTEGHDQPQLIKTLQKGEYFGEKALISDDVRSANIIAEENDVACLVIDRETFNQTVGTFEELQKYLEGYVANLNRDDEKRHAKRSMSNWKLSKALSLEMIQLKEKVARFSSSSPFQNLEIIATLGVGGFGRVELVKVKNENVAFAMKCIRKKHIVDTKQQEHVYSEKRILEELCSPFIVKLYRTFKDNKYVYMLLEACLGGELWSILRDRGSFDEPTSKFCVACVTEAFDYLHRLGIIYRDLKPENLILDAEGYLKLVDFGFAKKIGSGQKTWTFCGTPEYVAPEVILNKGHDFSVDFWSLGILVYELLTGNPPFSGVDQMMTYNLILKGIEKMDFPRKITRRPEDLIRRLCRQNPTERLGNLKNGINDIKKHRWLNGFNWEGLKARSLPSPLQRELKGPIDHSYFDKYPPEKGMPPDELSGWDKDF
Procedure, shortened: as §1

BMX = molecular target: T9, BMX (Homo sapiens, UniProt P51813)
T9 construct: purchased ThermoFisher (SelectScreen, Z'-LYTE)
T9 sequence (P51813 1-675): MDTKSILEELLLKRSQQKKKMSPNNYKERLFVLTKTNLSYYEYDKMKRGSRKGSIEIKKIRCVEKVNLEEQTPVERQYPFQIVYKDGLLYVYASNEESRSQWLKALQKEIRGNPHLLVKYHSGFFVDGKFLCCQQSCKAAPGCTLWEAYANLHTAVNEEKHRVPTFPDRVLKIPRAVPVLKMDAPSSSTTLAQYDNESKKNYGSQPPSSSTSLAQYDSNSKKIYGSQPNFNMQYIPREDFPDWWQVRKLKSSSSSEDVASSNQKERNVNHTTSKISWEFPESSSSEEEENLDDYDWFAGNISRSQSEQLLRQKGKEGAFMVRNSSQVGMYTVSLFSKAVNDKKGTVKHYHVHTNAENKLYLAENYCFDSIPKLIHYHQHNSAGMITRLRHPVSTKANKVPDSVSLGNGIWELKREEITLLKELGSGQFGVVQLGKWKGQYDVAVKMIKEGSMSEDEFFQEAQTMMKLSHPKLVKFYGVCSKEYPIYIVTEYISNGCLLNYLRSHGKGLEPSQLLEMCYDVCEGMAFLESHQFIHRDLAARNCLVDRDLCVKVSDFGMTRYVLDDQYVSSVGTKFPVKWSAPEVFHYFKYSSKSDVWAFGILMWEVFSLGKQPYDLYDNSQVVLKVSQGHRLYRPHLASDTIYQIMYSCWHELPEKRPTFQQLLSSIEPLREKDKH
Procedure, shortened: as §1

T4 sequence (P00519 whole entry): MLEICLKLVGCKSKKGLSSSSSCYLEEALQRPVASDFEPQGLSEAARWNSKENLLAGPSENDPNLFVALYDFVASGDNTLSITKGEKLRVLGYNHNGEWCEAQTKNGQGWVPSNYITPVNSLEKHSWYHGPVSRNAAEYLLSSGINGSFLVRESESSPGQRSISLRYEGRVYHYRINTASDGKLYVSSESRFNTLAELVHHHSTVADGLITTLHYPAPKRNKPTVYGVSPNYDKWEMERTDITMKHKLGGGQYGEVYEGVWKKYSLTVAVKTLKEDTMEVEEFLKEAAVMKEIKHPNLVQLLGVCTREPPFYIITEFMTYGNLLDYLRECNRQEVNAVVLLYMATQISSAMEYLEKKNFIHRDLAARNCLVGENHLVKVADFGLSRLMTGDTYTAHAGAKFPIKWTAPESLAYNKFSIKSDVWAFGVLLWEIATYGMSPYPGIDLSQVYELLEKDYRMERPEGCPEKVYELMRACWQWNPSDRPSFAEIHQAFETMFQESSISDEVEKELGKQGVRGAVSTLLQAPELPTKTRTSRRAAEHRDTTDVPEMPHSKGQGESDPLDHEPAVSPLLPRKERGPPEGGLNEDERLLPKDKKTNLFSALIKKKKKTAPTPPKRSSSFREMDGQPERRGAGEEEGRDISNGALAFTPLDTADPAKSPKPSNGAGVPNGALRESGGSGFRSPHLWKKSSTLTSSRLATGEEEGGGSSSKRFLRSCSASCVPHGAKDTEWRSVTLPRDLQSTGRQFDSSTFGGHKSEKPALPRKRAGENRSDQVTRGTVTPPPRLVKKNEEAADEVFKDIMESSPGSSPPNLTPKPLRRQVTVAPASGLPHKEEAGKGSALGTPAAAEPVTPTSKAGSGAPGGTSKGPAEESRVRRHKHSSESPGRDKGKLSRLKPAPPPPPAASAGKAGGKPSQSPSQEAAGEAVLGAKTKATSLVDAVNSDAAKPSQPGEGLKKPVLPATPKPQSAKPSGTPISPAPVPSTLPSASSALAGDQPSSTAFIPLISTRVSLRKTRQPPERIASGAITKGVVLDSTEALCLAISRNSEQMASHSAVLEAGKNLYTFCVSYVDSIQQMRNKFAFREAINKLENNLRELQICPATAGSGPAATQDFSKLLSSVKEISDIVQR
T2 sequence (P07949 29-1114): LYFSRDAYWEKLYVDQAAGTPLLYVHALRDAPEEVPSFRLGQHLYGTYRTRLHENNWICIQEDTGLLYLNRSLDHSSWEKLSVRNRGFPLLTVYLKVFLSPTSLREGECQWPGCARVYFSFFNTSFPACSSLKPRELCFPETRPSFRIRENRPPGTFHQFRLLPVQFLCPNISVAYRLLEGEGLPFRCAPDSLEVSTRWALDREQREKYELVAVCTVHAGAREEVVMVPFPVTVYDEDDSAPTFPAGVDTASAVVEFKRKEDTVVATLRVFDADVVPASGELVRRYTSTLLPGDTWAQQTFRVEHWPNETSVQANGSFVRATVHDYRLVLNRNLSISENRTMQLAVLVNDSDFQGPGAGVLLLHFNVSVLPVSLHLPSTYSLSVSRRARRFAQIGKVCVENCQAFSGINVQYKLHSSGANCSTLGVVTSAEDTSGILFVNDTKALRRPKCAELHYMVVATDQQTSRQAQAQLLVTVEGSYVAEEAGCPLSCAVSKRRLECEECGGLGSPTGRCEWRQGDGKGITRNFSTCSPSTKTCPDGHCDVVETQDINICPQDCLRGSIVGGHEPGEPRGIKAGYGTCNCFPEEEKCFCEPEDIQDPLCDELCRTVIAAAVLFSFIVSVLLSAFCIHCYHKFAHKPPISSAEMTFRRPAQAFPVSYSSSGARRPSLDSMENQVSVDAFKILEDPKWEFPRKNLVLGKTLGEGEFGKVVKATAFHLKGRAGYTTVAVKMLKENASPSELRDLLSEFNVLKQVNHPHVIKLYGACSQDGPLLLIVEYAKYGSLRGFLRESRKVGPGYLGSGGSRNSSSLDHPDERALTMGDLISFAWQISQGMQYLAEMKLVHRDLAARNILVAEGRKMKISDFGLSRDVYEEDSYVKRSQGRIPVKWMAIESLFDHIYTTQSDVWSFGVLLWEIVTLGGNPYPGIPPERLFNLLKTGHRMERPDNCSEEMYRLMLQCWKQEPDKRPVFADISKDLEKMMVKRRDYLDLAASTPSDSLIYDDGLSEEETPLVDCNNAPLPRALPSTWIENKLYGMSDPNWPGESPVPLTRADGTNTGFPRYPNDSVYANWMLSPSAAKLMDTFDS
T7 sequence (P49137 whole entry): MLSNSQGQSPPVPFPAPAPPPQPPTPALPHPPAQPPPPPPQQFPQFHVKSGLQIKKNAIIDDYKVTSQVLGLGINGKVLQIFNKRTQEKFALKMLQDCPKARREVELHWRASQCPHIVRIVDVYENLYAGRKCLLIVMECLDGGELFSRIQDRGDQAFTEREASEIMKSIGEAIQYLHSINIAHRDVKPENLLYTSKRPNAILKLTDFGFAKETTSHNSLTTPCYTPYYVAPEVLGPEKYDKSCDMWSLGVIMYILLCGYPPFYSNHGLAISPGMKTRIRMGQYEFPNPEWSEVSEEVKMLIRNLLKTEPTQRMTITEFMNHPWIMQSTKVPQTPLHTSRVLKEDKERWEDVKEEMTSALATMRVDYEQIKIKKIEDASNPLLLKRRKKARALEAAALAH
T3 sequence (Q13153 whole entry): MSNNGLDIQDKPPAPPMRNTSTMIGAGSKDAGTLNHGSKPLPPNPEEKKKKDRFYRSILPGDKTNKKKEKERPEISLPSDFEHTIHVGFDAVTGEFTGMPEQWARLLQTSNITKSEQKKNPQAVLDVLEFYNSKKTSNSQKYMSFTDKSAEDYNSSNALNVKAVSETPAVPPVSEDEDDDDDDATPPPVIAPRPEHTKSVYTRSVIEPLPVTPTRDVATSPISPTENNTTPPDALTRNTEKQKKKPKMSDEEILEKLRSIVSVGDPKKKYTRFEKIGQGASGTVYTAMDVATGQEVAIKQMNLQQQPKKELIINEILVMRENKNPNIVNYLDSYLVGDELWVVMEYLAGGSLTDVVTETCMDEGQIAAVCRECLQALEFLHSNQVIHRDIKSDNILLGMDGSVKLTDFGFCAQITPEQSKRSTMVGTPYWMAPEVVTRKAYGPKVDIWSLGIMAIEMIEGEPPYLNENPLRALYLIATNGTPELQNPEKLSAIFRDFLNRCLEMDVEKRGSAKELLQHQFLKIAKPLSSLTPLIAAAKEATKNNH

Molecule	SGKL (SGK3) % Inhibition (SGKL (SGK3); 10 µM compound, ATP Km app) [%]	RET % Inhibition (RET; 10 µM compound, ATP Km app) [%]	PAK1 % Inhibition (PAK1; 10 µM compound, ATP Km app) [%]	ABL1 % Inhibition (ABL1; 10 µM compound, ATP Km app) [%]	PRKCI (PKC iota) % Inhibition (PRKCI (PKC iota); 10 µM compound, ATP Km app) [%]	DNA-PK % Inhibition (DNA-PK; 10 µM compound, ATP Km app) [%]	MAPKAPK2 % Inhibition (MAPKAPK2; 10 µM compound, ATP Km app) [%]	PRKG2 (PKG2) % Inhibition (PRKG2 (PKG2); 10 µM compound, ATP Km app) [%]	BMX % Inhibition (BMX; 10 µM compound, ATP Km app) [%]	inhibition at 10 µM (SGKL (SGK3)) [%]	inhibition at 10 µM (RET) [%]	inhibition at 10 µM (PAK1) [%]	inhibition at 10 µM (ABL1) [%]	inhibition at 10 µM (PRKCI (PKC iota)) [%]	inhibition at 10 µM (DNA-PK) [%]	inhibition at 10 µM (MAPKAPK2) [%]	inhibition at 10 µM (PRKG2 (PKG2)) [%]	inhibition at 10 µM (BMX) [%]
XMD8-92 [Compound 2, reference compound]	96	40	8	72	0.17	38	93	43	41									
Cc1ncc(-c2nc(Nc3ccc(C(=O)NCCN4CCCCC4)cc3)ncc2F)n1C(C)C [Compound 3]										67	95	51	91	5.66	33	52	95	68
Cc1cc(Nc2nc(N)nn2C(=O)NC(C)C)ccc1Cl [Compound 5]										-11	44	-12	57	-6	13	6.56	-9	19
